This passage reports IC50 results from patent US12083124B2 (Incyte Corporation, priority 2019, dated 2024).

Test [1] has as its target wild-type un-phosphorylated FGFR4 (Homo sapiens, UniProt P22455). The experiment in a line: FGFR Enzymatic Assay (FRET peptide phosphorylation), FGFR4.
Description: The inhibitor potency of the exemplified compounds was determined in an enzyme discontinuous assay that measures peptide phosphorylation using FRET measurements to detect product formation. Inhibitors were serially diluted in DMSO and a volume of 0.2 μL was transferred to the wells of a 384-well plate. […] Appropriate controls (enzyme blank and enzyme with no inhibitor) were included on the plate. […] The 10 μL/well reaction concentration of the peptide substrate was 500 nM whereas the ATP concentration was maintained near or below the ATP Km. The ATP Km values were pre-determined in a separate series of experiments. The reaction plate was incubated at 25° C. for 1 hr and the reactions were ended with the addition of 5 μL/well of quench solution (50 mM Tris, 150 mM NaCl, 0.5 mg/mL BSA, pH 7.8; 45 mM EDTA, 600 nM staurosporin, with Perkin Elmer Lance Reagents at 3.75 nM Eu-antibody PY20 and 180 nM APC-Streptavidin). The plate was allowed to equilibrate for ˜10 minutes at ambient temperature before scanning on a PheraStar plate reader (BMG Labtech) instrument.
Either GraphPad prism or XLfit was used to analyze the data. The IC50 values were derived by fitting the data to a four parameter logistic equation producing a sigmoidal dose-response curve with a variable Hill coefficient. Prism equation: Y=Bottom+(Top-Bottom)/(1+10^((Log IC50-X)*Hill slope)); XLfit equation: Y=(A+((B−A)/(1+((X/C)^D)))) where X is the logarithm of inhibitor concentration and Y is the response.
GraphPad prism3 was used to analyze the data. The IC50 values were derived by fitting the data to the equation for a sigmoidal dose-response with a variable slope. Y=Bottom+(Top-Bottom)/(1+10^((Log IC50-X)*Hill Slope)) where X is the logarithm of concentration and Y is the response.
The data in Table 1 was measured in wild-type un-phosphorylated FGFR1, FGFR2, FGFR3, and FGFR4 proteins.
The target in test [2] is wild-type un-phosphorylated FGFR2 (Homo sapiens, UniProt P21802). The experiment in a line: FGFR Enzymatic Assay (FRET peptide phosphorylation), FGFR2.
For test [3], the target named is wild-type un-phosphorylated FGFR1 (Homo sapiens, UniProt P11362). The experiment in a line: FGFR Enzymatic Assay (FRET peptide phosphorylation), FGFR1. The settings on record: pre-incubated for 4 hours.
Test [4] concerns the target wild-type un-phosphorylated FGFR3 (Homo sapiens, UniProt P22607). The test can be described thus: FGFR Enzymatic Assay (FRET peptide phosphorylation), FGFR3.
Where [5] appears, read: read-out: FGFR1, wild-type un-phosphorylated FGFR1.
Setting [6] is: read-out: FGFR4, wild-type un-phosphorylated FGFR4, pre-incubated for 4 hours.

SMILES strings stand for the structures. pIC50: −log10 of the molar value. Where two headings read alike, the source gives them in different places.

wild-type un-phosphorylated FGFR3, sequence (P22607 23-806): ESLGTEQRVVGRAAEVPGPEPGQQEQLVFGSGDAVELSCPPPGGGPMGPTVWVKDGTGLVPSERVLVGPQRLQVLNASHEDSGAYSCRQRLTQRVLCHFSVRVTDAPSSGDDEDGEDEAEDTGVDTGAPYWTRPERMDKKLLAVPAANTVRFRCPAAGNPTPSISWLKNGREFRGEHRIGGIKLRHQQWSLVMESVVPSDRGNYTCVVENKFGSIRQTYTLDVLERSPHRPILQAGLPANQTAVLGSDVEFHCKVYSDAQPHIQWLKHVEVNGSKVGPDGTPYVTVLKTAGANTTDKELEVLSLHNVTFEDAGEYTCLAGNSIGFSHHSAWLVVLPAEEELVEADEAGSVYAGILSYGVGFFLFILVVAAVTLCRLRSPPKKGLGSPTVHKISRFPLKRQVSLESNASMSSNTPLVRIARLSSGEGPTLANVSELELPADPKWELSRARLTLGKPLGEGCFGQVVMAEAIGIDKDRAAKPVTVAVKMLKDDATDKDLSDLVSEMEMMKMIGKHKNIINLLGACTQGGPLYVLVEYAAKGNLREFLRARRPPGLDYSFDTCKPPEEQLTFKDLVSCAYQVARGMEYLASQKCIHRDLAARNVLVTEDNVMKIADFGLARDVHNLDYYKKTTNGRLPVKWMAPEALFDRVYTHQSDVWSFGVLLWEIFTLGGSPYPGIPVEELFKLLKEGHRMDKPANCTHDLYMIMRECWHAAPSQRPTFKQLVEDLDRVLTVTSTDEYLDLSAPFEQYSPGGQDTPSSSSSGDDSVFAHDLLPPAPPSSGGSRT
wild-type un-phosphorylated FGFR2, sequence (P21802 22-821): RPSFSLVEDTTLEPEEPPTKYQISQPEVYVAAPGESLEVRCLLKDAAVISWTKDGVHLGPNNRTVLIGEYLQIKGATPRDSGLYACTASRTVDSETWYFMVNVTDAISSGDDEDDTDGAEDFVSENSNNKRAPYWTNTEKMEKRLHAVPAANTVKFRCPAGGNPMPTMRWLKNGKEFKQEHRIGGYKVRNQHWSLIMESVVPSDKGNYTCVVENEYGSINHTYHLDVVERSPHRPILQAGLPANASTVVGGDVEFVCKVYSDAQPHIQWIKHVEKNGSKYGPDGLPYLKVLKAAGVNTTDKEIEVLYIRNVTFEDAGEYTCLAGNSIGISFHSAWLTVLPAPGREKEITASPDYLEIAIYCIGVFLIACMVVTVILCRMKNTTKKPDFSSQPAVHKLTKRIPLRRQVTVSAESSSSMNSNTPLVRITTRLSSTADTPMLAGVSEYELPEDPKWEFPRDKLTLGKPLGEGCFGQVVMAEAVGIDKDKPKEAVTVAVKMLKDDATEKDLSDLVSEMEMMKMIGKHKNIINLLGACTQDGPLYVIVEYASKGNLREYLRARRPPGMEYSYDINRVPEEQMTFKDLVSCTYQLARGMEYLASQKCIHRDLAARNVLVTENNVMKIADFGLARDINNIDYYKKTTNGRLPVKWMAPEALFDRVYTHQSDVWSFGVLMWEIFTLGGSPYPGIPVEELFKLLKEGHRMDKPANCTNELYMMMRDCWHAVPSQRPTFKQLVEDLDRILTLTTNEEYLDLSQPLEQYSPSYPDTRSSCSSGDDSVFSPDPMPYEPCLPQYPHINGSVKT
wild-type un-phosphorylated FGFR4, sequence (P22455 22-802): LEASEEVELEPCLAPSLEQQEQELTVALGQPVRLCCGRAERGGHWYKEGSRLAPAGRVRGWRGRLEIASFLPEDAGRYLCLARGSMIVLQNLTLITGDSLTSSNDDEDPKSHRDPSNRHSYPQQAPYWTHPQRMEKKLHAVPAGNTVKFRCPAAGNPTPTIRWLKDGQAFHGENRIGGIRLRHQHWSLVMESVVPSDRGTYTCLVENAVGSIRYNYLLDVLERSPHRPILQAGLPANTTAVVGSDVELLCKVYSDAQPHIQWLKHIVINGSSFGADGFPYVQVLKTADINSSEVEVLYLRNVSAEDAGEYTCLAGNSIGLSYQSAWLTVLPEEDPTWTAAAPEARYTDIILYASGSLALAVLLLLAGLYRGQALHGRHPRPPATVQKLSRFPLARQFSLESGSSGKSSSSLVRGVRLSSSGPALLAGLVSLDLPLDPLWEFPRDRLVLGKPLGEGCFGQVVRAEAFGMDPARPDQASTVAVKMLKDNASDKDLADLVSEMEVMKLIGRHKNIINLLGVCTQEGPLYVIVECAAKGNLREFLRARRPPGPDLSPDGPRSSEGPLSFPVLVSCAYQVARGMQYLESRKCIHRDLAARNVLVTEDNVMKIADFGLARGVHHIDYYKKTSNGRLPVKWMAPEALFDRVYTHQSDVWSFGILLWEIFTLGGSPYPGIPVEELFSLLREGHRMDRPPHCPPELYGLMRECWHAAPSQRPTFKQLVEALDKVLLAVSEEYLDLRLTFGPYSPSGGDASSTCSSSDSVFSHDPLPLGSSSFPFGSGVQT
wild-type un-phosphorylated FGFR1, sequence (P11362 22-822): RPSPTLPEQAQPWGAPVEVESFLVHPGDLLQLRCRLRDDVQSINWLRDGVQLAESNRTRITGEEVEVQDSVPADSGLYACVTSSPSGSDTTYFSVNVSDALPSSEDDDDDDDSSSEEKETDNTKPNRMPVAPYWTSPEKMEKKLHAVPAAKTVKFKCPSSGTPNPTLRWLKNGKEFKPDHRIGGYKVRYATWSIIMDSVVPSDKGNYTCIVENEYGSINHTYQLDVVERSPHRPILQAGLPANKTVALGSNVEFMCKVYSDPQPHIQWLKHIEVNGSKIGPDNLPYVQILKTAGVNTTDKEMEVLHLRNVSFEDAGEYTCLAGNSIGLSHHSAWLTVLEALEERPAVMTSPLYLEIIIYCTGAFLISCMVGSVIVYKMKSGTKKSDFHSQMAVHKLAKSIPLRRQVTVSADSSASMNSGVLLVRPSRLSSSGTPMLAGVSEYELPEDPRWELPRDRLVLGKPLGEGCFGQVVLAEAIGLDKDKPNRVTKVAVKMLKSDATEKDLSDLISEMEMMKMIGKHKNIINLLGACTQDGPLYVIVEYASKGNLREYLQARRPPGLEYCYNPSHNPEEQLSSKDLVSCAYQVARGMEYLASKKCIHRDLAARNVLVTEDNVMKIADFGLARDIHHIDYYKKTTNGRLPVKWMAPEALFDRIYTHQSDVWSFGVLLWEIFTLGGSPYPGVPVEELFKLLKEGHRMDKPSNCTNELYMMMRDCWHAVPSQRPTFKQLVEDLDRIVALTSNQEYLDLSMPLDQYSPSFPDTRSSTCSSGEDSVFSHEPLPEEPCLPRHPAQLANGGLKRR

In the case of `COc1cc2[nH]nc(-c3ccc(C(C)N4CCOCC4)nc3)c2nc1-c1cccc2c1CCC2` (stereo not drawn) [Example 162, 4-(1-(5-(5-(2,3-Dihydro-1H-inden-4-yl)-6-methoxy-1H-pyrazolo[4,3-b]pyridin-3-yl)pyridin-2-yl)ethyl)morpholine], the pIC50 in test [1] was below 7.00; in test [2], above 8.22; in test [3] (FGFR1, wild-type un-phosphorylated FGFR1), 7.00 to 7.40; in test [4], above 8.22.

`COc1cc2[nH]nc(-c3cnn([C@H]4CCN(C(=O)[C@@H]5CCCO5)C4)c3)c2nc1-c1cccc2c1CCC2C#N` (stereo partly drawn) [Example 169, 4-(6-Methoxy-3-(1-((S)-1-((S)-tetrahydrofuran-2-carbonyl)pyrrolidin-3-yl)-1H-pyrazol-4-yl)-1H-pyrazolo[4,3-b]pyridin-5-yl)-2,3-dihydro-1H-indene-1-carbonitrile]: the pIC50 in test [1] is 7.00 to 7.40; in test [2] it was above 8.22; in test [3] (setting [5]) it was 7.40 to 8.22; in test [4], above 8.22.

As to `COc1cc2[nH]nc(-c3ccc(C4CCN(C5CCN(C)C5=O)C4)nc3)c2nc1-c1cccc2c1CCC2` (single isomer, unassigned) [Example 106, 3-(5-(5-(2,3-Dihydro-1H-inden-4-yl)-6-methoxy-1H-pyrazolo[4,3-b]pyridin-3-yl)pyridin-2-yl)-1′-methyl-[1,3′-bipyrrolidin]-2′-one], the pIC50 in test [1] (setting [6]) is 7.40 to 8.22; in test [2], above 8.22; in test [3] (setting [5]) it was 7.40 to 8.22; in test [4] it was above 8.22.

For `COc1cc2[nH]nc(-c3cnn(C4CN(C(=O)[C@@H]5CCN5CCF)C4)c3)c2nc1-c1cccc2c1CCC2` [Example 141, (S)-(3-(4-(5-(2,3-Dihydro-1H-inden-4-yl)-6-methoxy-1H-pyrazolo[4,3-b]pyridin-3-yl)-1H-pyrazol-1-yl)azetidin-1-yl)(1-(2-fluoroethyl)azetidin-2-yl)methanone], the pIC50 in test [1] (setting [6]) was 7.40 to 8.22; in test [2], above 8.22; in test [3] (setting [5]), 7.40 to 8.22; in test [4] it was above 8.22.

Take `COc1cc2[nH]nc(-c3ccc(C4CCN(C(=O)CO)CC4)nc3)c2nc1-c1cccc2c1CCC2C#N` (stereo not drawn) [Example 115, 4-(3-(6-(1-(2-Hydroxyacetyl)piperidin-4-yl)pyridin-3-yl)-6-methoxy-1H-pyrazolo[4,3-b]pyridin-5-yl)-2,3-dihydro-1H-indene-1-carbonitrile]: the pIC50 in test [1] (setting [6]) is 7.40 to 8.22; in test [2] it was above 8.22; in test [3] (setting [5]), 7.40 to 8.22; in test [4] it was above 8.22.

`COc1cc2[nH]nc(-c3ccc(C4CCN(C(=O)CO)CC4)nc3)c2nc1-c1cccc2c1CCC2` [Example 100, 1-(4-(5-(5-(2,3-Dihydro-1H-inden-4-yl)-6-methoxy-1H-pyrazolo[4,3-b]pyridin-3-yl)pyridin-2-yl)piperidin-1-yl)-2-hydroxyethan-1-one]: the pIC50 is 7.40 to 8.22 in test [1] (setting [6]), above 8.22 in test [2], 7.40 to 8.22 in test [3] (setting [5]) and above 8.22 in test [4].
